From patent US20250326769A1, “HETEROAROMATIC MACROCYCLIC ETHER CHEMOTHERAPEUTIC AGENTS” (Nuvalent, Inc., priority 2022, published 2025)

Assays:
Format in all cases: cell-based
[1] = target: Ba/F3 ETV6-TRKB (Homo sapiens, UniProt Q16620); assay: Ba/F3 cell proliferation assay, ETV6-TRKB; conditions: Ba/F3 stable cells, 72 hours, CellTiter-Glo; read-out: ETV6-TRKB IC50
Text: (§1) Genes encoding EML4-ALK v1 (variant 1), EML4-ALK v1 G1202R, EML4-ALK v1 I1171IN, EML4-ALK v1 D1203N, EML4-ALK v1 I1171N/D1203N, and ETV6-TRKB were synthesized at GeneRay, cloned into the retroviral construct pMSCV-puro (Biovector), and packaged into retroviral particles. The virus was used to infect Ba/F3 cells (RIKEN) at multiplicity of infection=1 for 1 day. Infected cells were rescued in media (RPMI-1640 with 10% fetal bovine serum and 1% streptomycin and penicillin) supplemented with mouse IL-3 (10 ng/mL) for 2 days, and stable cell lines were selected by IL-3 withdrawal and puromycin (0.8 μg/mL) for 7 days. Monoclones were selected by single-cell dilution in IL-3-free medium containing puromycin (0.8 μg/mL). Transformation of desired genes was confirmed by Sanger sequencing and western blot using the following antibodies: ALK (CST #3633) and pan-TRK (Abcam #76291).
(§2) Stable cells were plated in a 384-well plate. Test compounds were then added in a 3-fold dilution series and incubated for 72 hours. CellTiter-Glo reagent (Promega) was added. Luminescence was measured on a plate reader. Half-maximal inhibitory concentration (ICso) was calculated from percent inhibition and inhibitor concentration using four-parameter logistic regression. Compound potency can be interpreted by binning IC50 values: bin A for high potency, 0.1 nM IC50<50 nM; bin B for medium potency, 50 nM<IC50<500 nM; and bin C for low potency, IC50>500 nM. […] Exemplary data is given in Table 4 (nd is not determined).
(§3) Ba/F3 proliferation is driven by the transduced oncogenes in the same way that cancer cell proliferation in humans is driven by the expression of equivalent oncogenes.

[2] = target: Ba/F3 EML4-ALK v1 I1171N (Homo sapiens (Human), UniProt Q9HC35+Q9UM73, I1171N); assay: Ba/F3 cell proliferation assay, EML4-ALK v1 I1171N; conditions: for IC50: Ba/F3 stable cells, 72 hours, CellTiter-Glo; for ETV6-TRKB / EML4-ALK v1 I1171N: TRKB selectivity, ratio of Ba/F3 IC50 values
Text: as §1, §2, §3
(§4) TRKB selectivity was calculated by dividing a compound's TRKB potency by its primary target potency (e.g., ETV6-TRKB IC50/EML4-ALK v1 IC50). Compound selectivity can be interpreted by binning ratio values: bin A for very high selectivity, ratio≥30-fold; bin B for high selectivity, ratio≥10-fold but<30; bin C for moderate selectivity, ratio≥1 but<10; and bin D for low selectivity, ratio<1. […] (nd=not determined).

[3] = target: Ba/F3 EML4-ALK v1 I1171N/D1203N (Homo sapiens (Human), UniProt Q9HC35+Q9UM73, D1203N/I1171N); assay: Ba/F3 cell proliferation assay, EML4-ALK v1 I1171N/D1203N; conditions: for IC50: Ba/F3 stable cells, 72 hours, CellTiter-Glo; for ETV6-TRKB / EML4-ALK v1 I1171N/D1203N / Selectivity for Ba/F3 EML4-ALK v1 I1171N-D1203N IC50 over Ba/F3 ETV6-TRKB IC50: TRKB selectivity, ratio of Ba/F3 IC50 values; for Selectivity for Ba/F3 EML4-ALK v1 I1171N-D1203N IC50 over Ba/F3 ETV6-TRKB IC50: Table 6 bins
Text: as §1, §2, §3, §4
Additional exemplified compounds were also tested against ALK-INDN and TRKB. The TRKB selectivity was calculated by dividing a compound's TRKB potency by its primary target potency (e.g., ETV6-TRKB IC50/EMIL4-ALK I1171N-D1203N v1 IC50). Compound selectivity can be interpreted by binning ratio values: bin AA for the selectivity with the ratio≥30-fold; bin BB for the selectivity with the ratio≥10-fold but<30; bin CC for the selectivity with the ratio≥5 but<10; bin DD for the selectivity with the ratio≥1 but<5; and bin EE for the selectivity with the ratio<1.

Ba/F3 ETV6-TRKB, sequence (Q16620 32-822 limits assumed, stated change not applied): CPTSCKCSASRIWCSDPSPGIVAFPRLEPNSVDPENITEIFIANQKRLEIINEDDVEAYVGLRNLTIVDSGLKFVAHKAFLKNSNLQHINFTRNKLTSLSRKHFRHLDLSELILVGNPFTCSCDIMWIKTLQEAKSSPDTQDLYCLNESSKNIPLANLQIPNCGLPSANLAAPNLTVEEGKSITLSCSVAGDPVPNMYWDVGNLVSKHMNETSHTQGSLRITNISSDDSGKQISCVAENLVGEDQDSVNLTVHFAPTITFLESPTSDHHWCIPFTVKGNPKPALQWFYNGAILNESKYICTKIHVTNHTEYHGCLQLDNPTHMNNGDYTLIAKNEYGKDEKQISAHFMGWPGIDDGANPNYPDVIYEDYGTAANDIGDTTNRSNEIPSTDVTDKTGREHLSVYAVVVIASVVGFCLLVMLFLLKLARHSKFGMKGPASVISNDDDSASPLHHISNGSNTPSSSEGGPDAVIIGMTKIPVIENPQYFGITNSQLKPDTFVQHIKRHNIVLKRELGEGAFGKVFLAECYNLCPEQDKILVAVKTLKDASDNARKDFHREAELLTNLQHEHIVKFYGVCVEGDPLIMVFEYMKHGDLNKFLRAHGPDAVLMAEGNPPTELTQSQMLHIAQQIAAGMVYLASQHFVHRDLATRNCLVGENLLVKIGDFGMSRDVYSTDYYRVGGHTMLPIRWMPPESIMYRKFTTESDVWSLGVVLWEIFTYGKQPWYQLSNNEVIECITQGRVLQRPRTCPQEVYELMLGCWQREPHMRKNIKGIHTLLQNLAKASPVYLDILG
Ba/F3 EML4-ALK v1 I1171N/D1203N, sequence (Q9UM73 other isoform, or with tags, fused parts or gaps I1171N/D1203N): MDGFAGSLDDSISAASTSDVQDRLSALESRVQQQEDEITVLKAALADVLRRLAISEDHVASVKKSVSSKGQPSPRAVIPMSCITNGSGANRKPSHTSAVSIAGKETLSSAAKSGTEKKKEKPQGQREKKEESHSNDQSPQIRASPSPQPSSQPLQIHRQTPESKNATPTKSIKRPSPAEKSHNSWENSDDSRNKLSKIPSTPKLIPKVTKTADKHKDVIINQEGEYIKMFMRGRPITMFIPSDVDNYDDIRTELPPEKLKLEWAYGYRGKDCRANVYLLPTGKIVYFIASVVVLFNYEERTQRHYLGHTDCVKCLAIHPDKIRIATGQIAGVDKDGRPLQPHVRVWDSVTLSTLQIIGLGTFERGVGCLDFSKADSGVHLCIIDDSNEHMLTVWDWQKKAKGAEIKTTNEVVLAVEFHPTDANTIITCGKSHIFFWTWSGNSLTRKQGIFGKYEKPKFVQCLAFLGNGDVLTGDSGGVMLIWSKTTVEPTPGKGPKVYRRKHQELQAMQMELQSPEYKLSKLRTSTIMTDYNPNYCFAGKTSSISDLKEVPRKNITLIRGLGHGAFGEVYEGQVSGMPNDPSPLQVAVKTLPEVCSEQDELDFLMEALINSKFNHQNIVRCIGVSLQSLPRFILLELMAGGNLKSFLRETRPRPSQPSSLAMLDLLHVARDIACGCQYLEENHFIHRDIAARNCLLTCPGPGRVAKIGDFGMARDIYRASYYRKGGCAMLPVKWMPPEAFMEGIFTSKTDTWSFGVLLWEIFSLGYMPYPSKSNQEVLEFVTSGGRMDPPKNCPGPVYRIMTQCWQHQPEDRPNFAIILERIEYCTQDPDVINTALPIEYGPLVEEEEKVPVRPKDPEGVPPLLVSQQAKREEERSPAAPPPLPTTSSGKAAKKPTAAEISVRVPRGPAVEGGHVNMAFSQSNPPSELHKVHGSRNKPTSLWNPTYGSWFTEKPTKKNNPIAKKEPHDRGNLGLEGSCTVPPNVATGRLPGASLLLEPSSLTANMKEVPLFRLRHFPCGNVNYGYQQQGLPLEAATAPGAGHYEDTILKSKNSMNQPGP
Ba/F3 EML4-ALK v1 I1171N, sequence (Q9UM73 other isoform, or with tags, fused parts or gaps I1171N): as the sequence (Q9UM73 other isoform, or with tags, fused parts or gaps I1171N/D1203N) above, with N642D counted along it

Row | Structure (SMILES) | IC50 [1] [nM] | IC50 [2] [nM] | ETV6-TRKB / EML4-ALK v1 I1171N [2] | IC50 [3] [nM] | ETV6-TRKB / EML4-ALK v1 I1171N/D1203N [3] | Selectivity for Ba/F3 EML4-ALK v1 I1171N-D1203N IC50 over Ba/F3 ETV6-TRKB IC50 [3]
1 | C[C@H]1Oc2cc(cnc2N)-c2c(nn(C)c2C#N)C(=O)c2scnc2-c2c(F)cc(F)cc21 [Example 81, (R)-22-amino-14,16-difluoro-4-methyl-19-methyl-7-oxo-20-oxa-9-thia-4,5,11,23-tetraazapentacyclo[19.3.1.0^2,^6.0^8,^12.0^13,^18]pentacosa-1(24),2,5,8(12),10,13,15,17,21(25),22-decaene-3-carbonitrile] | > 500 | 0.1 to 50 | A (bin A for very high selectivity, ratio≥30-fold) | 0.1 to 50 | A (bin A for very high selectivity, ratio≥30-fold) | –
2 | Cc1ccc2c(n1)-c1ccc(F)cc1[C@@H](C)Oc1cc(cnc1N)-c1c(C#N)nn(C(=O)N(C)C)c1C2 [Example 72, N,N-dimethyl-(R)-23-amino-3-cyano-17-fluoro-11,20-dimethyl-21-oxa-4,5,12,24-tetraazapentacyclo[20.3.1.0^2,^6.0^8,^13.0^14,^19]hexacosa-1(25),2(6),3,8(13),9,11,14,16,18,22(26),23-undecaene-5-carboxamide] | > 500 | 50 to 500 | A (bin A for very high selectivity, ratio≥30-fold) | 50 to 500 | B (bin B for high selectivity, ratio≥10-fold but<30) | –
3 | C[C@H]1Oc2cc(cnc2N)-c2c(n[nH]c2C#N)C(=O)c2cccnc2-c2c(F)cc(F)cc21 [Example 77, (R)-23-amino-15,17-difluoro-20-methyl-7-oxo-21-oxa-4,5,12,24-NH2 tetraazapentacyclo[20.3.1.0^2,6.0^8,13.0^14,19]hexacosa-1(25),2,5,8,10,12,14,16,18,22(26),23-undecaene-3-carbonitrile] | 50 to 500 | 0.1 to 50 | B (bin B for high selectivity, ratio≥10-fold but<30) | 0.1 to 50 | A (bin A for very high selectivity, ratio≥30-fold) | –
4 | CCn1nc(C(=O)N(C)C)c2c1-c1cnc(N)c(c1)O[C@H](C)c1cc(F)cc(F)c1-c1ncccc1C2 [Example 46, N,N-dimethyl-(R)-23-amino-3-ethyl-15,17-difluoro-20-methyl-21-oxa-3,4,12,24-tetraazapentacyclo[20.3.1.0^2,^6.0^8,^13.0^14,^19]hexacosa-1(25),2(6),4,8(13),9,11,14,16,18,22(26),23-undecaene-5-carboxamide] | 50 to 500 | 50 to 500 | C (bin C for moderate selectivity, ratio≥1 but<10) | 0.1 to 50 | B (bin B for high selectivity, ratio≥10-fold but<30) | –
5 | C[C@H]1Oc2cc(cnc2N)-c2c(nn(C)c2C#N)C(=O)c2cn(C)nc2-c2c(F)cc(F)cc21 [Example 26, (R)-22-amino-14,16-difluoro-4,10-dimethyl-19-methyl-7-oxo-20-oxa-4,5,10,11,23-pentaazapentacyclo[19.3.1.0^2,^6.0^8,^12.0^13,^18]pentacosa-1(24),2,5,8,11,13,15,17,21(25),22-decaene-3-carbonitrile] | > 500 | 50 to 500 | A (bin A for very high selectivity, ratio≥30-fold) | 0.1 to 50 | A (bin A for very high selectivity, ratio≥30-fold) | AA (bin AA for the selectivity with the ratio≥30-fold)
6 | CCn1ncc2c1-c1cnc(N)c(c1)O[C@H](C)c1cc(F)ccc1-c1nn(C)cc1C2=O [Example 15, (R)-22-amino-3-ethyl-16-fluoro-10-methyl-19-methyl-20-oxa-3,4,10,11,23-pentaazapentacyclo[19.3.1.0^2,^6.0^8,^12.0^13,^18]pentacosa-1(24),2(6),4,8,11,13,15,17,21(25),22-decaen-7-one] | 50 to 500 | > 500 | D (bin D for low selectivity, ratio<1) | 50 to 500 | C (bin C for moderate selectivity, ratio≥1 but<10) | DD (bin DD for the selectivity with the ratio≥1 but<5)
7 | C[C@H]1Oc2nc(cnc2N)-c2c(nn(C)c2C#N)C(=O)c2cccnc2-c2c(F)cc(F)cc21 [Example 82, (R)-23-amino-15,17-difluoro-4-methyl-20-methyl-7-oxo-21-oxa-4,5,12,24,26-pentaazapentacyclo[20.3.1.0^2,6.0^8,13.0^14,19]hexacosa-1(25),2,5,8(13),9,11,14,16,18,22(26),23-undecaene-3-carbonitrile] | 50 to 500 | 0.1 to 50 | C (bin C for moderate selectivity, ratio≥1 but<10) | 0.1 to 50 | A (bin A for very high selectivity, ratio≥30-fold) | –
8 | Cc1nc2c(s1)C(=O)c1nn(C)c(C#N)c1-c1cnc(N)c(c1)O[C@H](C)c1cc(F)ccc1-2 [Example 73, (R)-22-amino-16-fluoro-4-methyl-10,19-dimethyl-7-oxo-20-oxa-9-thia-4,5,11,23-tetraazapentacyclo[19.3.1.0^2,^6.0^8,^12.0^13,^18]pentacosa-1(24),2,5,8(12),10,13,15,17,21(25),22-decaene-3-carbonitrile] | 50 to 500 | 0.1 to 50 | – | 0.1 to 50 | – | –
9 | C[C@H]1Oc2cc(cnc2N)-c2c(nn(C)c2C#N)C(=O)c2cccnc2-c2c(F)cc(F)cc21 [Example 21, (R)-23-amino-15,17-difluoro-4-methyl-20-methyl-7-oxo-21-oxa-4,5,12,24-tetraazapentacyclo[20.3.1.0^2,^6.0^8,^13.0^14,^19]hexacosa-1(25),2,5,8,10,12,14,16,18,22(26),23-undecaene-3-carbonitrile] | 50 to 500 | 0.1 to 50 | B (bin B for high selectivity, ratio≥10-fold but<30) | 0.1 to 50 | A (bin A for very high selectivity, ratio≥30-fold) | AA (bin AA for the selectivity with the ratio≥30-fold)
10 | COCCn1nc2c(c1C#N)-c1cnc(N)c(c1)O[C@H](C)c1cc(F)ccc1-c1ncccc1C2=O [Example 52, (R)-23-amino-17-fluoro-4-(2-methoxyethyl)-20-methyl-7-oxo-21-oxa-4,5,12,24-tetraazapentacyclo[20.3.1.0^2,^6.0^8,^13.0^14,^19]hexacosa-1(25),2,5,8,10,12,14,16,18,22(26),23-undecaene-3-carbonitrile] | 50 to 500 | 0.1 to 50 | A (bin A for very high selectivity, ratio≥30-fold) | 0.1 to 50 | A (bin A for very high selectivity, ratio≥30-fold) | AA (bin AA for the selectivity with the ratio≥30-fold)
11 | CCn1ncc2c1-c1cnc(N)c(c1)O[C@H](C)c1cc(F)ccc1-c1ncccc1O2 [Example 14, (R)-3-ethyl-17-fluoro-20-methyl-7,21-dioxa-3,4,12,24-tetraazapentacyclo[20.3.1.0^2,^6.0^8,^13.0^14,^19]hexacosa-1(25),2(6),4,8(13),9,11,14,16,18,22(26),23-undecaen-23-ylamine] | 0.1 to 50 | 0.1 to 50 | – | 50 to 500 | – | –
